Measured values: article doi:10.1101/2023.11.15.567208 (bioRxiv, 2024)
“Also recorded” adds a separate entry of the source. Each block holds one compound with its values, some of them ahead of it.

Assays:
[1] = Chemical algogens, licking behavior after intraplantar injection; format: in vivo, mouse; conditions: 20 μl intraplantar, time licking in 5 min
Protocol: 0.3% capsaicin in 80% saline / 10% Tween-80 / 10% ethanol or 1% AITC in saline was injected into the plantar surface of the hind paw. The injected volume for both was 20 μl. Mice were video-taped for 5 minutes. A blinded observer scored the amount of time in seconds the mouse spent licking the injected paw in a 5-minute time period.

[2] = Hindpaw swelling / oedema, paw volume; format: in vivo, mouse; conditions: for Swelling of the hindpaw: hindpaw of DKO mice compared with WT, observation on injection; for Paw oedema (paw volume): intraplantar injection, volume normalized to uninjected paw, capsaicin WT n=9, DKO n=7, AITC n=8 each
Protocol: (§1) Mice were anesthetized using isoflurane. 200 μl of Evans Blue dye was injected into the mouse’s tail vein. 15 mins later, one hindpaw was injected with an algogen. After a further 30 mins, the volume of each paw was measured by displacement using a plethysmometer (Ugo Basile). Both paws were then cut at the ankle and placed in tubes in the oven at 55 °C for 24 hours to dry. 1 ml of formamide was then added to each paw and incubated for 4–6 days at 55 °C to extract the dye from the paw tissue. 50 μl samples of dye-infused formamide from each paw were then dispensed to a 96 well plate in duplicate, along with a range of Evans blue dilutions in formamide to generate a standard curve. The optical density of each sample was then measured using a plate-reader, and the concentration of Evans Blue per paw sample interpolated from the standard curve to generate an index of extravasation in that paw.

[3] = Plasma extravasation, Evans blue dye; format: in vivo, mouse; conditions: Evans blue optical density, normalized to uninjected paw; capsaicin WT n=9, DKO n=7; AITC n=8 each
Protocol: as §1

[4] = LiCl conditioned taste aversion; format: in vivo, mouse; conditions: lithium chloride 200 mg/kg injection paired with 15 mM saccharin; WT n=7, DKO n=6
Protocol: Mice were single-housed and habituated for 3 days to drink from two glass bottles with stainless-steel ball-bearing spouts. Mice then received 3 days of training, where they were water-deprived for 22 hours followed by 30 mins exposure to a single water-containing bottle, then 90 mins exposure to both bottles. On the conditioning day, after 22 hours of water deprivation, mice were exposed to a single bottle containing saccharin water (15 mM) for 45 mins. Mice were then injected with lithium chloride (200 mg/kg) or PBS, and then given ordinary water for 75 mins. The animals were then water deprived for a further 22 hours. On the test day, mice were simultaneously exposed to a bottle containing water and a bottle containing saccharin for 45 mins. The volume of each solution consumed was measured by weighing the bottles before and after. To calculate the saccharin preference index of each animal, the volume of saccharin consumed was divided by the total of fluid consumed, with a value less than 0.5 indicating the development of an aversion to saccharin. […]
bioRxiv preprint doi: https://doi.org/10.1101/2023.11.15.567208; this version posted December 2, 2024. […]
Figure 2 – f igure supplement 2. Tac1::Calca DKO mice develop LiCl-induced conditioned taste aversion (A) Quantification of conditioned taste aversion (CT A) test in W T (blue ) and DKO (red) mice. […]

[5] = Inflammatory pain model, Hargreaves radiant heat; format: in vivo, mouse; conditions: PGE2 20 μl, 500 nM intraplantar
Protocol: The radiant heat stimulus was aimed for the centre of the plantar region of the mouse’s hind paw. The active intensity of the low stimulus was 40 intensity units, and of the high stimulus 55. The response latency was recorded for 5 trials with 10-minute breaks in between each trial.
CFA and PGE2 was purchased from Sigma. 20 μl of CFA was injected into the heel of the hind paw. PGE2 (20 μl, 500 nM) was injected into the plantar surface of the hindpaw, and behavior was assessed over the same time-frame that produces in vivo sensitization of nociceptor responses (up to 120 minutes). Inflammation-induced hypersensitivity was measured using the Hargreaves and the von Frey, as described above.

[6] = 0.6% acetic acid, 10 μl per gram, intraperitoneal; writhes in 15 min starting 5 min after injection; WT n=9, DKO n=7
Protocol: Mice were habituated on a plexiglass stand for 1 hour. 0.6% of acetic acid was injected intraperitoneally at a dose of 10 μl per gram weight of the animal. Mice were videotaped for 20 minutes. The number of writhes was quantified post-hoc by a blinded observer during a 15-minute interval between 5 and 20 minutes after injection.

[7] = Acetone evoked cold response; format: in vivo, mouse; conditions: acetone droplet on paw; time licking in 60 s; WT n=12, DKO n=12
Protocol: Mice were habituated on a plexiglass floor stand for 1 hour. Mice were videotaped as acetone was applied to the plantar region of their hind paw. Acetone was applied using a custom-made applicator, consisting of a 1ml syringe and plastic well where acetone was pushed out to generate a droplet for applying to the paw. Behavior was scored post-hoc by a blinded observer and the total amount of time spent licking the paw in a 60 second time interval was recorded. The experiment was repeated for a second trial and average scores were used.

[8] = biological target: T1, Substance P receptor (NKR1) (Mus musculus, UniProt P30548); assay: Co-culture of DRG neurons with Substance P-sniffer cells, capsaicin-evoked Substance P release; format: cell-based; conditions: capsaicin 10 μM, n=12 wells from 2 mice; for Substance P-sniffer GCaMP response, WT DRG: co-culture with WT (control) DRG neurons
T1 construct: T2A self-cleaving peptide remnant (from the polycistronic P2A-TACR1-T2A cassette) (C); expressed in transfected cells; host or cells: Flp-In T-REx HEK293 (Thermo Fisher Scientific, R78007), lentiviral transduction, hygromycin selection
T1 sequence (P30548 whole entry): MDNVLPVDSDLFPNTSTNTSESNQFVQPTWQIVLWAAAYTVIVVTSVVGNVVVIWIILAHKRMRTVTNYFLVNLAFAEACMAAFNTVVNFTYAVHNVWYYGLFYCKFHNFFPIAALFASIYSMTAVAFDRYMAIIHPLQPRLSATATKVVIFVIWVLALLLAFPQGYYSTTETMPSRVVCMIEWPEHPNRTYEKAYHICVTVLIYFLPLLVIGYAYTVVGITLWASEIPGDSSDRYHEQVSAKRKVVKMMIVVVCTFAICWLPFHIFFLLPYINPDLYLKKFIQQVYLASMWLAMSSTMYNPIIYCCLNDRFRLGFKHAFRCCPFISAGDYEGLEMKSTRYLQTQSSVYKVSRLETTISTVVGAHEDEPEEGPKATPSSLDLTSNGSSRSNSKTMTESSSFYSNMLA

[9] = biological target: T2, CGRP receptor (Calcrl and Ramp1) (Mus musculus, UniProt Q9R1W5+Q9WTJ5); assay: Co-culture of DRG neurons with CGRP-sniffer cells, capsaicin-evoked CGRPα release; format: cell-based; conditions: capsaicin 10 μM, n=18 wells from 3 mice
T2 construct: expressed in transfected cells; host or cells: HEK293; Calcrl/Gα15/GCaMP6s by PiggyBac transposase (puromycin), Ramp1 by pSBbi-Neo-cmv-TETo2-RAMP1 IRES-mTagBFP2-NLS (geneticin); doxycycline-induced
T2 sequence (Q9R1W5 23-463): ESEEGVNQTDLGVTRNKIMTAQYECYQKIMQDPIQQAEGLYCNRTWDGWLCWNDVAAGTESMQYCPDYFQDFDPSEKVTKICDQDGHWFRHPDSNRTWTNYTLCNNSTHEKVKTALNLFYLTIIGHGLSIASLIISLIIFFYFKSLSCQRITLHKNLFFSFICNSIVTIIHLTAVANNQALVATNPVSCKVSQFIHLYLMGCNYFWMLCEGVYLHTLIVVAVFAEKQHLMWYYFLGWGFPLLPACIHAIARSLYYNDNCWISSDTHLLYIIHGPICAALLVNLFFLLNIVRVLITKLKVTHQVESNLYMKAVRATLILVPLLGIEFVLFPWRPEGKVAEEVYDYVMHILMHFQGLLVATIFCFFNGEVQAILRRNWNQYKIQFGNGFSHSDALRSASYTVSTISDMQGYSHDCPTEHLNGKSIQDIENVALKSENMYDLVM
T2 sequence (Q9WTJ5 27-148): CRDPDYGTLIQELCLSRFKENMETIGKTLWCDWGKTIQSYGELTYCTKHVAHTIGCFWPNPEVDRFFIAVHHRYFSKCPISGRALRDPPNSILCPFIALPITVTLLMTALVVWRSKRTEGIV

[10] = test system: dorsal horn network activation; assay: Capsaicin-evoked dorsal horn Fos staining; format: in vivo; conditions: capsaicin 0.3% into right hindpaw; WT n=5, DKO n=4; mean Fos puncta of 5 sections per mouse
[11] = Chloroquine-induced itch, scratching bouts; format: in vivo, mouse; conditions: 20 μl of 25 μM chloroquine diphosphate intradermal, nape of neck; scratching bouts in 15 min; WT n=8, DKO n=11
Protocol: Hair from the nape of the mouse’s neck was removed 2–3 days prior to behavioral experiments using VEET hair removal cream and the area thoroughly washed and moisturizing cream applied. Mice were habituated to transparent acrylic chambers (10cm × 10cm × 13cm) 30 minutes prior to injection. Post habituation, a blinded investigator injected 20 μl of 25 μM Chloroquine diphosphate salt (Sigma-Aldrich: C6628) solution in 0.9% saline intradermally into the nape of the neck using a 31G insulin syringe. Videos were quantified by a separate blinded investigator with a scratching bout counted each time the mouse attended to the injected area with the hind paw after the paw was removed from the floor or mouth.

[12] = Oxaliplatin cold allodynia, Cold Plate; format: in vivo, mouse; conditions: one day after intraplantar oxaliplatin; Cold Plate 10 °C, 5 min; WT n=9, DKO n=6
From the text: The plate was set to the desired temperature. A camera set up with a mirror was used for better visibility of the mouse on the hot plate. A clear cylindrical tube was placed around the hot plate to ensure the mouse cannot escape. Once the hot plate reached the set temperature, the mouse was placed on the hot plate and the top of the cylinder was covered. At the cut-off time, the mouse was taken off the hot plate and placed back in the cage. The latency to lick was scored post-hoc using the recorded videos by a blinded observer.
Chemotherapy-induced neuropathy was induced in mice by intraplantar injection of oxaliplatin into the left hind paw ([Deuis et al., 2013]; [MacDonald et al., 2021]). Oxaliplatin was made up to a dose of 80 μg in 40 μl of 5% glucose solution, due to its instability in chloride-containing saline solution. The number of nocifensive behaviors in 5 mins was assessed on the Cold Plate held at 10 °C 24 hours later.

[13] = ref MacDonald et al., 2021; cited from earlier work
From the text: Lastly, we investigated how dual peptide deletion affected the development of allodynia symptoms, where innocuous stimuli are perceived as painful, in two mouse models of neuropathic pain ([Jensen and Finnerup, 2014]).

Compound: C=CCN=C=S [AITC, allyl isothiocyanate]
Licking behavior, AITC ([1]; 1% AITC in saline, WT n=12, DKO n=12): evoked similar licking behavior to capsaicin that was unaffected by peptide deletion
Swelling of the hindpaw [2]: provoked swelling of the hindpaw of DKO mice to a similar extent as WT mice
Paw oedema (paw volume) [2]: both WT and DKO mice show paw swelling
Plasma extravasation [3]: both WT and DKO mice show paw swelling and plasma extravasation

Compound: [Cl-].[Li+] [LiCl, lithium chloride]
Conditioned taste aversion (saccharin preference) [4]: pr onoun ced; also recorded: strong and indistinguishable conditioned taste aversion in both WT and DKO mice

Compound: CCCCC[C@H](O)/C=C/[C@H]1[C@H](O)CC(=O)[C@@H]1C/C=C\CCCC(=O)O [PGE2, Prostaglandin E2]
WT vs DKO difference in Hargreaves latency after PGE2, post-hoc ([5]; post-hoc Sidak's test, WT n=10, DKO n=10): only the 120 min time-point shows a significant difference (p=0.025)
Heat and mechanical hypersensitivity, PGE2 ([5]; up to 120 min, Hargreaves (n=10 each) and von Frey (n=6 each)): short-lasting heat and mechanical hypersensitivity to a similar extent in both WT and DKO mice
Swelling of the hindpaw [2]: provoked swelling of the hindpaw of DKO mice to a similar extent as WT mice

Compound: CC(=O)O [acetic acid]
Writhing behavior [6]: comparable writhing behavior in both WT and DKO mice

Compound: CC(C)=O [acetone]
Cold response evoked by acetone [7]: the same between groups

Substance P-sniffer GCaMP response, DKO DRG ([8]; co-culture with DKO DRG neurons): no Substance P-sniffer cell responses
Substance P-sniffer GCaMP response, WT DRG [8]: robust GCaMP responses
CGRP-sniffer calcium response, WT DRG [9]: strong increases in calcium
Compound: COc1cc(CNC(=O)CCCC/C=C/C(C)C)ccc1O [capsaicin]
Substance P-sniffer GCaMP response, WT DRG ([8]; listed as Capsaicin): increase in Substance P-sniffer GCaMP6s fluorescence
CGRP-sniffer calcium response, WT DRG ([9]; listed as Capsaicin): increase in CGRP-sniffer GCaMP6s fluorescence
Licking behavior, capsaicin ([1]; 0.3% capsaicin, WT n=9, DKO n=8): evoked coping-like licking responses in both genotypes, however responses were variable and although decreased licking was observed in some DKO mice, differences did not reach statistical significance
Dorsal horn Fos expression, capsaicin-evoked [10]: No differences in dorsal horn Fos expression were observed
Swelling of the hindpaw [2]: provoked swelling of the hindpaw of DKO mice to a similar extent as WT mice
Paw oedema (paw volume) [2]: both WT and DKO mice show paw swelling; also recorded: no appreciable differences in capsaicin-induced swelling between WT and DKO mice
Plasma extravasation [3]: both WT and DKO mice show paw swelling and plasma extravasation; also recorded: plasma extravasation was intact in DKO mice

Compound: CCN(CC)CCCC(C)Nc1ccnc2cc(Cl)ccc12 (centres unmarked) [chloroquine]
Scratching [11]: DKO mice scratched robustly following intradermal chloroquine injection, a response indistinguishable from WT animals

Compound: O=C1[O][Pt]2([NH][C@@H]3CCCC[C@H]3[NH]2)[O]C1=O [oxaliplatin]
Cold allodynia, pain-like behaviors [12]: pronounced pain-like behaviors
Cold allodynia (literature) [13]: evokes extreme cold allodynia
